Test results reported in US11931431B2, “PSMA-targeted radiopharmaceutical for diagnosing and treating prostate cancer” (FUTURECHEM CO., LTD, priority 2018, dated 2024).

Experiments:
PSMA^+ PC-3 PIP tumors = test: MicroPET/CT imaging of mice transplanted with prostate cancer cell lines; format: in vivo, nude mouse
Description: A tumor model was prepared by subcutaneously injecting PSMA^+ PC-3 PIP cells (a human prostate cancer cell line) to the right side of the nude mouse hind leg. Each of the ^68Ga-labeled compounds [^68Ga]1e, [^68Ga]1g, [^68Ga]1h and [^68Ga]1k was intravenously injected with 5.5 to 6.5 MBq (148-175 μCi/200 μL), and PET/CT images were obtained using small animal INVEON PET/CT (Siemens medical solutions, Knoxville, USA) for 60 minutes. After 150 minutes, 270 minutes, and 390 minutes, PET/CT images were also obtained for 30 minutes. The obtained PET/CT image results were quantitatively analyzed using Inveon™ Research Workplace (IRW).
FIGS. 1, 2, 3, and 4 are graphs showing the quantitative analysis results of MicorPET/CT images for [^68Ga]1e, [^68Ga]1g, [^68Ga]1h, and [^68Ga]1k in % injected dose (ID)/g, and summarized in Tables 3, 4, 5, and 6, respectively.

[1] = Measurement of lipophilicity (log P), n-octanol/PBS; format: physicochemical; details: mean of 3
Description: Each of the [^68Ga]1 compounds (1˜2 mci) synthesized in Example 14 was transferred into a vial, and the solvent was removed, to which 1 mL of n-octanol and 1 mL of PBS were added, and the lid was well closed, followed by mixing with a vortex for 1 minute. After the layers were separated, 0.1 mL was taken from each layer and the radiation dose was measured. The radiation dose was measured by repeating 3 times, and the mean value was obtained.

## O=C(O)CCC(NC(=O)NC(CCCCN(CC(=O)O)C(=O)COCCOCCNC(=O)C(CCCCNC(=O)CCCc1ccc(I)cc1)NC(=O)CN1CCN2CCN3CCN(CC1)CC(=O)[O][68Ga]([O]C(=O)C2)[O]C(=O)C3)C(=O)O)C(=O)O (stereo not shown) [[^68Ga]1h]
PSMA^+ PC-3 PIP tumors; 10 min after injection
  intake of mouse organ: Bladder: 2.12 ± 0.39 % ID/g
  intake of mouse organ: Heart: 24.69 ± 0.20 % ID/g
  intake of mouse organ: Kidney: 13.26 ± 2.36 % ID/g
  intake of mouse organ: Liver: 14.96 ± 0.03 % ID/g
  intake of mouse organ: Muscle: 2.24 ± 0.15 % ID/g
  intake of mouse organ: Tumor (PIP): 1.94 ± 0.35 % ID/g
PSMA^+ PC-3 PIP tumors; 20 min after injection
  intake of mouse organ: Bladder: 2.91 ± 0.69 % ID/g
  intake of mouse organ: Heart: 21.30 ± 0.11 % ID/g
  intake of mouse organ: Kidney: 12.56 ± 0.86 % ID/g
  intake of mouse organ: Liver: 12.71 ± 0.03 % ID/g
  intake of mouse organ: Muscle: 2.97 ± 0.35 % ID/g
  intake of mouse organ: Tumor (PIP): 3.74 ± 0.97 % ID/g
PSMA^+ PC-3 PIP tumors; 30 min after injection
  intake of mouse organ: Bladder: 3.14 ± 0.51 % ID/g
  intake of mouse organ: Heart: 17.38 ± 0.04 % ID/g
  intake of mouse organ: Kidney: 12.61 ± 0.71 % ID/g
  intake of mouse organ: Liver: 10.37 ± 0.12 % ID/g
  intake of mouse organ: Muscle: 2.98 ± 0.34 % ID/g
  intake of mouse organ: Tumor (PIP): 5.00 ± 1.41 % ID/g
PSMA^+ PC-3 PIP tumors; 40 min after injection
  intake of mouse organ: Bladder: 4.52 ± 0.97 % ID/g
  intake of mouse organ: Heart: 15.25 ± 0.15 % ID/g
  intake of mouse organ: Kidney: 13.51 ± 0.46 % ID/g
  intake of mouse organ: Liver: 8.86 ± 0.35 % ID/g
  intake of mouse organ: Muscle: 3.28 ± 0.23 % ID/g
  intake of mouse organ: Tumor (PIP): 6.22 ± 1.75 % ID/g
PSMA^+ PC-3 PIP tumors; 50 min after injection
  intake of mouse organ: Bladder: 8.26 ± 4.41 % ID/g
  intake of mouse organ: Heart: 13.52 ± 0.55 % ID/g
  intake of mouse organ: Kidney: 13.44 ± 0.71 % ID/g
  intake of mouse organ: Liver: 7.83 ± 0.45 % ID/g
  intake of mouse organ: Muscle: 3.25 ± 0.36 % ID/g
  intake of mouse organ: Tumor (PIP): 7.12 ± 2.07 % ID/g
PSMA^+ PC-3 PIP tumors; 60 min after injection
  intake of mouse organ: Bladder: 12.62 ± 5.31 % ID/g
  intake of mouse organ: Heart: 12.14 ± 0.91 % ID/g
  intake of mouse organ: Kidney: 13.60 ± 1.72 % ID/g
  intake of mouse organ: Liver: 7.19 ± 0.49 % ID/g
  intake of mouse organ: Muscle: 3.14 ± 0.20 % ID/g
  intake of mouse organ: Tumor (PIP): 7.90 ± 2.46 % ID/g
PSMA^+ PC-3 PIP tumors; 150 min after injection
  intake of mouse organ: Bladder: 19.45 ± 12.23 % ID/g
  intake of mouse organ: Heart: 5.55 ± 2.19 % ID/g
  intake of mouse organ: Kidney: 6.40 ± 1.41 % ID/g
  intake of mouse organ: Liver: 2.80 ± 0.99 % ID/g
  intake of mouse organ: Muscle: 1.70 ± 0.57 % ID/g
  intake of mouse organ: Tumor (PIP): 9.90 ± 4.53 % ID/g
PSMA^+ PC-3 PIP tumors; 270 min after injection
  intake of mouse organ: Bladder: 15.90 ± 4.53 % ID/g
  intake of mouse organ: Heart: 5.75 ± 0.21 % ID/g
  intake of mouse organ: Kidney: 7.45 ± 1.63 % ID/g
  intake of mouse organ: Liver: 3.00 ± 0.28 % ID/g
  intake of mouse organ: Muscle: 1.70 ± 0.14 % ID/g
  intake of mouse organ: Tumor (PIP): 14.20 ± 0.00 % ID/g
PSMA^+ PC-3 PIP tumors; 390 min after injection
  intake of mouse organ: Bladder: 22.80 ± 9.90 % ID/g
  intake of mouse organ: Heart: 3.90 ± 0.42 % ID/g
  intake of mouse organ: Kidney: 5.85 ± 0.92 % ID/g
  intake of mouse organ: Liver: 2.35 ± 0.07 % ID/g
  intake of mouse organ: Muscle: 1.30 ± 0.14 % ID/g
  intake of mouse organ: Tumor (PIP): 16.75±0.92 % ID/g
PSMA^+ PC-3 PIP tumors; MicroPET/CT
  excretion, in words: rapidly excreted out of the body
  residence time in the blood, in words: residence time in the blood was increased
  tumor intake over time, in words: tumor intake continued to increase after 390 minutes
[1]
  logP: −1.89
